Experimental data from patent publication US4273866A, “Ligand analog-irreversible enzyme inhibitor conjugates and methods for use” (priority 1979, dated 1981).

Molecular target: acetylcholinesterase (T.californica) (Tetronarce californica, UniProt P04058)
Experiment: Antibody modulation of inhibition by Compound II and reversal by cholylglycine
Type: biochemical
Protocol: Antibody against cholylglycine-bovine serum albumin (BSA) conjugates were raised in rabbits, and the rabbit serum obtained by conventional techniques. The anti-cholylglycine IgG fraction was obtained by ammonium sulfate fractionation and ion exchange chromatography. The concentration of antibody was not determined but was adjusted from a pooled fraction from the ion exchange column to give best modulation of inhibition by Compound II. […] The experiment is carried out on an ABA-100® model bichromatic analyzer (Abbott Laboratories, North Chicago, Illinois) and the following settings were used:
The substrate solution and buffer are placed in the primary syringe of the dilution plate. The buffer is pH 7.0, 0.1 M potassium phosphate, 0.1% gelatin. The substrate is acetylthiocholine at 5.0×10^-4 M with DTNB at 1.6×10^-4 M as indicator. […] In all cases, the acetylcholinesterase (T.californica) concentration is approximately 2×10^-10 M and Compound II, the inhibitor, concentration is 10×10^-7 M. Where cholylglycine is added, the concentration in the sample cup is 10^-3 M. The sample cup contains pH 7.0, 0.1 M potassium phosphate buffer containing 0.1% gelatin plus the indicated components in the table: […]

[1] = enzyme + the substance only, T = 0 (E alone .246)
[2] = enzyme + the substance only, T = 13 min (E alone .237)
[3] = enzyme + the substance only, T = 25 min (E alone .234)
[4] = enzyme + the substance only, T = 36 min (E alone .230)

Sequence of acetylcholinesterase (T.californica) (P04058 22-564): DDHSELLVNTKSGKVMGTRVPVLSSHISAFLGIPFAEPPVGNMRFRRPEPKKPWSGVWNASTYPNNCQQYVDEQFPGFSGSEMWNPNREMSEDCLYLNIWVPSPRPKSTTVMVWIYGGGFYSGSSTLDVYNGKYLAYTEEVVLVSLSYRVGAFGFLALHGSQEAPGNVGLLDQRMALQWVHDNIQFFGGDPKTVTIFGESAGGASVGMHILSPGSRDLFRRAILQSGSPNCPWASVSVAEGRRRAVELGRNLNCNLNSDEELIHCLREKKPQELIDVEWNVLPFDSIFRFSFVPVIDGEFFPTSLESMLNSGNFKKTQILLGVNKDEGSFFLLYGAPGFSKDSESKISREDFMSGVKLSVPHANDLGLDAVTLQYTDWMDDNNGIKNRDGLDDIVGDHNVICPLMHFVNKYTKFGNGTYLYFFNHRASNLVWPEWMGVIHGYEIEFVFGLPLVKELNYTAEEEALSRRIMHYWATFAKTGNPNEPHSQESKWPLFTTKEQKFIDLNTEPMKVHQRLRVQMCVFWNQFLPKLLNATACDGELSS

SMILES	Change in Ad in 5 Minutes (E + Ab + CG (10^-3 M), no inhibitor, T = 0)	Change in Ad in 5 Minutes (E + Ab + CG (10^-3 M), no inhibitor, T = 13 min)	Change in Ad in 5 Minutes (E + Ab + CG (10^-3 M), no inhibitor, T = 25 min)	Change in Ad in 5 Minutes (E + Ab + CG (10^-3 M), no inhibitor, T = 36 min)	Change in Ad in 5 Minutes [1]	Change in Ad in 5 Minutes [2]	Change in Ad in 5 Minutes [3]	Change in Ad in 5 Minutes [4]	Change in Ad in 5 Minutes (E + I + Ab + CG (10^-3 M), T = 0)	Change in Ad in 5 Minutes (E + I + Ab + CG (10^-3 M), T = 13 min)	Change in Ad in 5 Minutes (E + I + Ab + CG (10^-3 M), T = 25 min)	Change in Ad in 5 Minutes (E + I + Ab + CG (10^-3 M), T = 36 min)	Change in Ad in 5 Minutes (E + I + Ab, T = 0)	Change in Ad in 5 Minutes (E + I + Ab, T = 13 min)	Change in Ad in 5 Minutes (E + I + Ab, T = 25 min)	Change in Ad in 5 Minutes (E + I + Ab, T = 36 min)	Change in Ad in 5 Minutes (E + I + CG (10^-3 M), T = 0)	Change in Ad in 5 Minutes (E + I + CG (10^-3 M), T = 13 min)	Change in Ad in 5 Minutes (E + I + CG (10^-3 M), T = 25 min)	Change in Ad in 5 Minutes (E + I + CG (10^-3 M), T = 36 min)
C[C@H](CCC(=O)NCC(=O)O)[C@H]1CC[C@H]2[C@@H]3[C@H](O)C[C@@H]4C[C@H](O)CC[C@]4(C)[C@H]3C[C@H](O)[C@]12C [CG, cholylglycine, reference compound]	.225 Ad/5 Min.	.223 Ad/5 Min.	.216 Ad/5 Min.	.207 Ad/5 Min.	.236 Ad/5 Min.	.228 Ad/5 Min.	.220 Ad/5 Min.	.211 Ad/5 Min.												
CCOP(=O)(OCCCCCNC(=O)CCCCCNC(=O)CC[C@@H](C)[C@H]1CC[C@H]2[C@@H]3[C@H](O)C[C@@H]4C[C@H](O[Si](C)(C)C(C)(C)C)CC[C@]4(C)[C@H]3C[C@H](O)[C@]12C)Oc1ccc2ccc[n+](C)c2c1 (stereo partly drawn) [Compound II]					.226 Ad/5 Min.	.072 Ad/5 Min.	.025 Ad/5 Min.	.013 Ad/5 Min.	.224 Ad/5 Min.	.078 Ad/5 Min.	.032 Ad/5 Min.	.017 Ad/5 Min.	.235 Ad/5 Min.	.192 Ad/5 Min.	.164 Ad/5 Min.	.147 Ad/5 Min.	.224 Ad/5 Min.	.062 Ad/5 Min.	.022 Ad/5 Min.	.013 Ad/5 Min.
